{"source": "patent US20230103142A1", "about": "“SMALL MOLECULE REGULATORS OF NOTCH1 AND USES THEREOF” (THE PENN STATE RESEARCH FOUNDATION, priority 2020, published 2023)", "key": {"[1]": {"biological_target": "NRR of Notch1 in HCT116 cells (Homo sapiens, UniProt P46531)", "sequence (P46531 19-2555)": "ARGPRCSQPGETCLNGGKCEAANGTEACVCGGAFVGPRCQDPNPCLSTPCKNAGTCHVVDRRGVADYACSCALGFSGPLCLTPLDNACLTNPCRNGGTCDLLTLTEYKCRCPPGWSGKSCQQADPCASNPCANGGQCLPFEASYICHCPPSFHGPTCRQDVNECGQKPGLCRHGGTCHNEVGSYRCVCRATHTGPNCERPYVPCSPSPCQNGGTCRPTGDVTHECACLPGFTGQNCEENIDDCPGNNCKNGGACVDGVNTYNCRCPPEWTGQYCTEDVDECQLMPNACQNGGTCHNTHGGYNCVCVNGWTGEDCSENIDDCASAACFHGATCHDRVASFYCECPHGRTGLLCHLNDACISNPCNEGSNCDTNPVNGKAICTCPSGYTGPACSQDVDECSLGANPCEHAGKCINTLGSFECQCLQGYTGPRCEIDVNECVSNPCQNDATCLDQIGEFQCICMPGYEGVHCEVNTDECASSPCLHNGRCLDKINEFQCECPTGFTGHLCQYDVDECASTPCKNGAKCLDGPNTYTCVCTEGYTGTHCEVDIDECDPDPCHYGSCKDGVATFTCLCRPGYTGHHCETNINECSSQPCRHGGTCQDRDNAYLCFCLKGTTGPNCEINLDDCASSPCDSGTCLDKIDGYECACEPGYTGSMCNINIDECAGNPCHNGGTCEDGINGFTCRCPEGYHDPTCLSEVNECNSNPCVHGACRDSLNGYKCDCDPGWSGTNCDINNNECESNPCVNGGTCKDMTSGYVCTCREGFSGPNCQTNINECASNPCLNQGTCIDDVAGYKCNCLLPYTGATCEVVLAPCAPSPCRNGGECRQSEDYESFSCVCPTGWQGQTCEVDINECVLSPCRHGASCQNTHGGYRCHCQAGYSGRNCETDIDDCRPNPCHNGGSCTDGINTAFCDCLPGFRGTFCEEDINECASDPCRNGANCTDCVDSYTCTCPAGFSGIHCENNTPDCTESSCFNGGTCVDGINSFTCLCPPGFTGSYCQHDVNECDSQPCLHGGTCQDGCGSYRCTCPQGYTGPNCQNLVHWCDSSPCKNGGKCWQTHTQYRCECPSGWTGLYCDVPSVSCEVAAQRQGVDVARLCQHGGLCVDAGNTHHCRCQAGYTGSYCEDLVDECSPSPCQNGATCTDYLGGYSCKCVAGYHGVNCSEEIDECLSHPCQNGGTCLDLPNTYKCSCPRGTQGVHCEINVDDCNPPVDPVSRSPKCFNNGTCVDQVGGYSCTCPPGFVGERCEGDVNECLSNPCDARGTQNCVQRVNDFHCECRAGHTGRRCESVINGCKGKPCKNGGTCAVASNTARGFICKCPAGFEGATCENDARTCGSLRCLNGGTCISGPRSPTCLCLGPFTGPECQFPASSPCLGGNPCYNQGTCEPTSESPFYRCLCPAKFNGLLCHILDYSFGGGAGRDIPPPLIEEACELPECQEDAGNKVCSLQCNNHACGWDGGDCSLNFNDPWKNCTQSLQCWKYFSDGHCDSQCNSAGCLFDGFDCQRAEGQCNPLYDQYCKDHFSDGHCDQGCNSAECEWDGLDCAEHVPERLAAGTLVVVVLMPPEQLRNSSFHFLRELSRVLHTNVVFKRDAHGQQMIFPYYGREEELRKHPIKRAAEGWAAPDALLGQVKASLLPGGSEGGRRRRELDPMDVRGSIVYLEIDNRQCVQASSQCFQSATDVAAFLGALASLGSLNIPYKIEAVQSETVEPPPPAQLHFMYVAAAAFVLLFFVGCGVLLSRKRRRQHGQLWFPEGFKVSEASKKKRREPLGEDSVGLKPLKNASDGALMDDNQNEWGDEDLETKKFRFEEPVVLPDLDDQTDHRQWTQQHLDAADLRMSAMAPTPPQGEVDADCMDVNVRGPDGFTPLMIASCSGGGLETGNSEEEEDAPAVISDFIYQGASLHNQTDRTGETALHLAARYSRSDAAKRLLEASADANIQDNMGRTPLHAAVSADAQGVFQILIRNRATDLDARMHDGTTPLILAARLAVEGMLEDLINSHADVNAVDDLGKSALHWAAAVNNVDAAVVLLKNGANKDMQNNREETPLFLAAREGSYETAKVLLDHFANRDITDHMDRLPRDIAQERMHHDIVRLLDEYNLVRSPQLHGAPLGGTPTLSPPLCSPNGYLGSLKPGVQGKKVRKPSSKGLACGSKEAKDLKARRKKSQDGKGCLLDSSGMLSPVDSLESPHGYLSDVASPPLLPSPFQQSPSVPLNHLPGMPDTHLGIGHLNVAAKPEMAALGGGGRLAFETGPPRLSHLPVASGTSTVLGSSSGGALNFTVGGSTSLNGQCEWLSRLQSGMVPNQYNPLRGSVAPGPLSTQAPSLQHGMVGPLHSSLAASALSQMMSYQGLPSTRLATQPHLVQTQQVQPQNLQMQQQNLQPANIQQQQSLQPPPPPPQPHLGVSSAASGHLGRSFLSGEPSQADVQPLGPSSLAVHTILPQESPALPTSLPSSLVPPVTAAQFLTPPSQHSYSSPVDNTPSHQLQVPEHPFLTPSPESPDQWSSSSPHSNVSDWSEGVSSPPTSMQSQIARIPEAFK", "conditions": "ASR490-treated HCT116 cells", "experimental": "(§1) Binding Studies. The protein-ligand binding was first studied by cellular thermal shift assay (CETSA) by following previously described protocol. […] Equal amount of cell lysate was used for ELISA with NRR antibody (Cat: NBP2-62557; Novus Biologicals). GloMelt Thermal Shift Protein Stability assay was performed as per the kit instructions (GloMelt™ Thermal Shift Protein Stability Kit; Biotium; Fermont, Calif.). […] A protein melt run profile was generated and Tm (melting temperature) was calculated using DNA melt curve software. To analyze protein melting, the Tm was considered at the lowest −dF/dT value (at the lowest point on the curve)."}, "purified NRR protein": {"tested_on": "purified NRR protein", "conditions": "vs vehicle (DMSO)", "experimental": "as §1"}, "Notch1/HCT116 clone C4": {"tested_on": "Notch1/HCT116 clone C4", "conditions": "C4, IC50 concentration", "experimental": "(§2) Flow cytometry analysis: 0.3×10^6 cells seeded in a 6 well plate and were cultured until 70-80% confluence was achieved. […] To quantify apoptosis, flow cytometry analysis of the Annexin V-FITC against Propidium Iodide (PI) assay was performed following a previously described protocol. The Apoptosis detection kit was purchased from BD Pharminogen™, San Diego, Calif., USA. All experiments were repeated in triplicate to achieve statistical relevance."}, "Notch1/HCT116 clone C5 [2]": {"tested_on": "Notch1/HCT116 clone C5", "conditions": "C5, IC50 concentration", "experimental": "as §2"}, "SW-620 cells": {"tested_on": "SW-620 cells", "conditions": "SW-620, 24 h", "experimental": "as §2"}, "pCMV/HCT116 cells": {"tested_on": "pCMV/HCT116 cells", "conditions": "pCMV/HCT116, IC50 concentration", "experimental": "as §2"}, "ALDH+ (BCSC) cells": {"tested_on": "ALDH+ (BCSC) cells", "description": "(§3) Studies have shown that Notch1 signaling is mainstay of breast cancer stem cell (BCSC) growth."}, "ALDH− (BC) cells": {"tested_on": "ALDH− (BC) cells", "description": "as §3"}, "[3]": {"tested_on": "proteasome in ALDH+ cells", "conditions": "15 and 30 min", "description": "Commercially available positive and negative controls were used for these experiments. […] Next, ubiquitination-associated NRR of Notch 1 degradation were examined."}, "Notch1/HCT116 clone C5 [4]": {"tested_on": "Notch1/HCT116 clone C5", "assay": "colony forming assay", "method": "Six biological replicates used for MTT assays and it was repeated twice for each experiment. […] The anchorage-independent growth assay was performed and repeated in triplicate."}, "pCMV/HCT116 xenografts": {"tested_on": "pCMV/HCT116 xenografts", "assay": "xenograft tumor growth study", "conditions": "5 mg/kg intraperitoneally thrice a week, 4 weeks", "method": "Xenograft studies: Six- to eight-week-old BALB/c athymic nude mice (nu/nu) (Jackson Laboratory: Bar Harbor, Me., USA) were subcutaneously injected with pCMV/HCT116 and C4 (1×10^6 cells). The monitoring and measurements were performed."}, "Notch2 in HCT116 cells": {"tested_on": "Notch2 in HCT116 cells", "assay": "immunoblot with Notch2 antibody", "conditions": "HCT116, IC50 concentration, 12 h and 24 h", "from_the_text": "(§4) Data are presented as the mean±standard deviation (SEM/SD) of three independent experiments. The Student's t-test was used to calculate the statistical significance between the vehicle and treatment at each concentration. *p<0.05 and **p<0.01."}, "Notch3 in HCT116 cells": {"tested_on": "Notch3 in HCT116 cells", "assay": "immunoblot with Notch3 antibody", "conditions": "HCT116, IC50 concentration, 12 h and 24 h", "from_the_text": "as §4"}, "[5]": {"tested_on": "Bladder Cancer cells (TCCSUP and HT1376)", "assay": "MTT assay in bladder cancer cells with low basal Notch1", "conditions": "low basal level of Notch1, 24 h", "from_the_text": "Six biological replicates used for MTT assays and it was repeated twice for each experiment. Data are presented, from independent experiments, as the mean±standard deviation (SEM/SD). The Student's t-test was used to calculate the statistical significance between the vehicle and treatment at each concentration. *p<0.05, **p<0.01 and ***p<0.001. […] Six biological replicates used for MTT assays and it was repeated twice for each experiment. Data are presented, from independent experiments, as the mean±standard deviation (SEM/SD). The Student's t-test was used to calculate the statistical significance between the vehicle and treatment at each concentration. *p<0.05 and # Not significant.\nSix biological replicates used for MTT assays and it was repeated twice for each experiment."}, "[6]": {"conditions": "read-out: IC 50 cell growth, 24 h"}, "[7]": {"conditions": "read-out: IC 50 cell growth, 48 h"}}, "note": "Where two headings read alike, the source gives them in different places.", "data": [{"smiles": "CC1=C(CO)C(=O)O[C@@H]([C@@H](C)[C@H]2CC[C@H]3[C@@H]4C[C@H]5O[C@]56[C@@H](OC(=O)c5ccccn5)C=CC(=O)[C@]6(C)[C@H]4CC[C@]23C)C1", "note": "[ASR490, Pyridine-2-carboxylic acid {17-[1-(5-hydroxymethyl-4-methyl-6-oxo-3,6-dihydro-2H-pyran-2-yl)-ethyl]-10,13-dimethyl-1-oxo, 4,6,7,8,9,10,11,12,13,14,15,16,17-tetradecahydro-20-oxacyclopropa[5,6]cyclopenta[a]phenanthren-4-yl}ester]", "values": [{"measurement": "binding to NRR by CETSA", "setting": "[1]", "value": "binds directly to NRR"}, {"measurement": "thermal stabilization of NRR protein", "setting": "purified NRR protein", "value": "increased stabilization of NRR protein"}, {"measurement": "induction of apoptosis", "setting": "Notch1/HCT116 clone C4", "value": 13.4, "unit": "%"}, {"measurement": "induction of apoptosis", "setting": "Notch1/HCT116 clone C5 [2]", "value": 13.2, "unit": "%"}, {"measurement": "induction of apoptosis", "setting": "SW-620 cells", "value": 9.57, "unit": "%"}, {"measurement": "induction of apoptosis", "setting": "pCMV/HCT116 cells", "value": 25.8, "unit": "%"}, {"measurement": "IC50", "setting": "ALDH+ (BCSC) cells; [6]", "value": 770, "unit": "nM"}, {"measurement": "IC50", "setting": "ALDH+ (BCSC) cells; [7]", "value": 443, "unit": "nM"}, {"measurement": "IC50", "setting": "ALDH− (BC) cells; [6]", "value": 1600, "unit": "nM"}, {"measurement": "IC50", "setting": "ALDH− (BC) cells; [7]", "value": 836, "unit": "nM"}, {"measurement": "proteasome inhibition", "setting": "[3]", "value": "not a proteasomal inhibitor"}, {"measurement": "reduction of colony forming ability", "setting": "Notch1/HCT116 clone C5 [4]", "value": 26.66, "unit": "%"}, {"measurement": "tumor growth", "setting": "pCMV/HCT116 xenografts", "value": "significant tumor growth inhibition"}, {"measurement": "Notch2 expression", "setting": "Notch2 in HCT116 cells", "value": "no change"}, {"measurement": "Notch3 expression", "setting": "Notch3 in HCT116 cells", "value": "no change"}, {"measurement": "growth of bladder cancer cells", "setting": "[5]", "value": "failed inhibit their growth"}]}]}
